Assay results: ChEMBL document CHEMBL1201862, “PubChem BioAssay data set” (2004)
Blank lines part the entries; values can stand above or below the molecule they belong to. Calls of active or inactive are those of the source.

Columns and labels:
[1] = blockers of CRF-binding protein–CRF-R2 complex – cell-based, uHTS hits, 384-well, dose response (AID 651639); format: functional, Homo sapiens; conditions: read-out: IC50_Mean
[2] = target: T1, Corticotropin-releasing factor receptor 2/Corticotropin-releasing factor-binding protein (Homo sapiens, UniProt P24387+Q13324); experiment: activators of CRF receptor 2 with binding protein – uHTS hits, confirmation (AID 602473); format: functional; conditions: read-out: EC50_Mean
T1 sequence (Q13324 whole entry): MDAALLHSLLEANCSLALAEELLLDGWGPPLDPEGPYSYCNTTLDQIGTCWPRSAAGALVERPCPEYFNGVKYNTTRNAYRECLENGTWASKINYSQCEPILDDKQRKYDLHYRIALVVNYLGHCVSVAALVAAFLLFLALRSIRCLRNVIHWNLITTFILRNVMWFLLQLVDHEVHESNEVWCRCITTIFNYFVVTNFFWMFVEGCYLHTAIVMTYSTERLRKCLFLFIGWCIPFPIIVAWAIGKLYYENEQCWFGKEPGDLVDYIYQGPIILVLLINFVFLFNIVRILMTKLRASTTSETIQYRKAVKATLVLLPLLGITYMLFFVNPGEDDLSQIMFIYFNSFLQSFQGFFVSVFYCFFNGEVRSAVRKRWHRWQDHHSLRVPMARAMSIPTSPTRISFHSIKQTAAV
T1 sequence (P24387 whole entry): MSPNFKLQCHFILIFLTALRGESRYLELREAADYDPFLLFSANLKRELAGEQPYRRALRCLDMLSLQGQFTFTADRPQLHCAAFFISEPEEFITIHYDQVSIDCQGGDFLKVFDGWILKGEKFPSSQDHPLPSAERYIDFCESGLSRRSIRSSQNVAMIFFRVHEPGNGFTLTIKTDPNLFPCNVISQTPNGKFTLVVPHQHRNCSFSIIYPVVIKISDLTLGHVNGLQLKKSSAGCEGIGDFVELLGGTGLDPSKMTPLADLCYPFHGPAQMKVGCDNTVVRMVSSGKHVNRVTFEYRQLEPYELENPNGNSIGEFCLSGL

[3] = target: T2, Carboxy-terminal domain RNA polymerase II polypeptide A small phosphatase 1 (Homo sapiens, UniProt Q9GZU7); experiment: CTDSP1 inhibitors, concentration-response, biochemical, absorbance readout, ultra-high-throughput screen actives (AID 540297); format: functional
T2 sequence (Q9GZU7 whole entry): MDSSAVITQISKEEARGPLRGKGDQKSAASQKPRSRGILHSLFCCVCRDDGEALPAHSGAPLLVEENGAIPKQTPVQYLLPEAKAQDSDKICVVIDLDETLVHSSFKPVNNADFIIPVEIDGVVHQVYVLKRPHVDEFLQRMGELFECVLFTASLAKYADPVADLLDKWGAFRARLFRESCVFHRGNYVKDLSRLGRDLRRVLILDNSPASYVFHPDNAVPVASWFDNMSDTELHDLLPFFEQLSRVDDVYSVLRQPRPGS

[4] = target: Envelope glycoprotein gp160 (Human immunodeficiency virus 1, UniProt Q6QLK5); experiment: cell-free HIV fusion peptide-binding blockers – biochemical, uHTS, fluorescence dequenching, […] (AID 1986)
[5] = target: T1, Corticotropin-releasing factor receptor 2/Corticotropin-releasing factor-binding protein; experiment: Dose Response confirmation of uHTS hits for small molecule antagonists of the CRF-binding protein and CRF-R2 receptor complex.; format: functional; conditions: read-out: IC50_Mean
[6] = target: Melanin-concentrating hormone receptor 1 (Homo sapiens, UniProt Q99705); experiment: Late-stage fluorescence-based counterscreen for antagonists of the G-protein coupled receptor 7 (GPR7): cell-based dose response assay to identify antagonists of the melanin-concentrating hormone receptor 1 (MCHR1). [Related pubchem assays (depositor defined):AID1861, AID1880, AID1952, AID2148, AID2251, AID2257, AID485339]; format: functional;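 further: stimulated with 30 nM MCH peptide agonist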
Chain of Melanin-concentrating hormone receptor 1 (Q99705 whole entry): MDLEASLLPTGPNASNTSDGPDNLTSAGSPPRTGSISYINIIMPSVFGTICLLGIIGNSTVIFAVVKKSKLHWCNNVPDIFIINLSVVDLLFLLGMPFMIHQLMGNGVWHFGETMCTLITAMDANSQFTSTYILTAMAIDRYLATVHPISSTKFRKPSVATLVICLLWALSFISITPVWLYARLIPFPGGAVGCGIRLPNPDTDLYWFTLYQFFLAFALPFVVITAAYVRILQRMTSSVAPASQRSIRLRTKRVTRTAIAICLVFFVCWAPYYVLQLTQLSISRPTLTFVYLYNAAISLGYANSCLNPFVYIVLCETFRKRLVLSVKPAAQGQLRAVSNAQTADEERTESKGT

[7] = target: Neuropeptides B/W receptor type 1 (Homo sapiens, UniProt P48145); experiment: human NPBW1 receptor blockade, IC50 – cell-based, fluorescence, dose response, late-stage follow-up (AID 463251); format: functional
Chain of Neuropeptides B/W receptor type 1 (P48145 whole entry): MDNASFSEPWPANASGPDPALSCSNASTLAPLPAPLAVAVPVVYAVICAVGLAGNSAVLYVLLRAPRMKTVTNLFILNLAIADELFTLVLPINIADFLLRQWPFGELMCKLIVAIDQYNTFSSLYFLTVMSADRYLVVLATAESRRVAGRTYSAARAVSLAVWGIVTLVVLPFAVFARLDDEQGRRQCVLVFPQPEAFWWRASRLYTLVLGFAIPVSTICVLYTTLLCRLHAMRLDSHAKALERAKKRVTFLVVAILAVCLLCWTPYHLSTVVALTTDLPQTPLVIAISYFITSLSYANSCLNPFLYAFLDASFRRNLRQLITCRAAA

[8] = target: T3, Protein phosphatase methylesterase 1 (Homo sapiens, UniProt Q9Y570); experiment: endogenous PME-1 and serine hydrolase inhibition – cell lysate, mouse brain cytosol, FP-rhodamine, gel ABPP, selectivity assay for PME-1 inhibitor project, dose response, panel member PME-1 Assay Panel member description: Inhibition of endogenously expressed PME-1 (AID 2366)
T3 sequence (Q9Y570 whole entry): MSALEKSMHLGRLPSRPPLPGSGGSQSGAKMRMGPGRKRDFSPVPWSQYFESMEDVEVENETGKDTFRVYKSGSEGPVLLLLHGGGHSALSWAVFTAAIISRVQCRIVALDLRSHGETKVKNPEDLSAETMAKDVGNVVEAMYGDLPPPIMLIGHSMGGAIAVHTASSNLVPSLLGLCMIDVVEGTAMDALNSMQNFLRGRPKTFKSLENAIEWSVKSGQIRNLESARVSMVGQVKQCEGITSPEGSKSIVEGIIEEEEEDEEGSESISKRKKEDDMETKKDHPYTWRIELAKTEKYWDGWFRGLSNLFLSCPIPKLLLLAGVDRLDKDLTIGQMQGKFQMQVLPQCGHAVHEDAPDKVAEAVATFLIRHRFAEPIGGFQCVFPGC

[9] = target: T3, Protein phosphatase methylesterase 1; experiment: Late stage results from the probe development effort to identify inhibitors of the protein methylesterase PME-1: Gel-based Activity-Based Protein Profiling (ABPP) IC50: Purified enzyme.; format: functional
[10] = target: Eukaryotic translation initiation factor 4E (Mus musculus, UniProt P63073); experiment: blockers of eIF4G binding by eIF4E – biochemical, TR-FRET, dose response (AID 855); format: functional;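 further: potency for disrupting eIF4E binding to eIF4GI seen as loss of FRET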
[11] = target: DNA damage-inducible transcript 3 protein (Mus musculus, UniProt P35639); format: functional, Cricetulus griseus
Chain of DNA damage-inducible transcript 3 protein (P35639 whole entry): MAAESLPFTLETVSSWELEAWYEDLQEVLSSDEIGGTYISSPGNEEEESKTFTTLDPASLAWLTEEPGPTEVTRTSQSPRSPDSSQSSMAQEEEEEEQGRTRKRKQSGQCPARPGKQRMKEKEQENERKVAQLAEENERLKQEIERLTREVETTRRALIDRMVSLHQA

HeLa = experiment: viability loss in HeLa cells – cell-based, 24 h, cherry-picked samples, cytotoxicity control, dose response (AID 504726); format: functional; conditions: Homo sapiens;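 further: potency for cytotoxicity as loss of luminescence signal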
INS1 = experiment: INS-1E survival protection against cytokine death – cell-based, luminescence, retest, dose response (AID 449756); format: functional; conditions: Rattus norvegicus;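 further: cell death triggered by IL-1 beta plus TNF-alpha plus IFN-gamma mixture; protective hits raise ATP signal compared with cytokine alone wells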
Hexokinase HKDC1 = target: T4, Hexokinase HKDC1 (Homo sapiens, UniProt Q2TB90); experiment: inhibition of HKDC1 glucose phosphorylation – biochemical, W721R variant, dose response (AID 504729); format: functional
T4 sequence (Q2TB90 whole entry): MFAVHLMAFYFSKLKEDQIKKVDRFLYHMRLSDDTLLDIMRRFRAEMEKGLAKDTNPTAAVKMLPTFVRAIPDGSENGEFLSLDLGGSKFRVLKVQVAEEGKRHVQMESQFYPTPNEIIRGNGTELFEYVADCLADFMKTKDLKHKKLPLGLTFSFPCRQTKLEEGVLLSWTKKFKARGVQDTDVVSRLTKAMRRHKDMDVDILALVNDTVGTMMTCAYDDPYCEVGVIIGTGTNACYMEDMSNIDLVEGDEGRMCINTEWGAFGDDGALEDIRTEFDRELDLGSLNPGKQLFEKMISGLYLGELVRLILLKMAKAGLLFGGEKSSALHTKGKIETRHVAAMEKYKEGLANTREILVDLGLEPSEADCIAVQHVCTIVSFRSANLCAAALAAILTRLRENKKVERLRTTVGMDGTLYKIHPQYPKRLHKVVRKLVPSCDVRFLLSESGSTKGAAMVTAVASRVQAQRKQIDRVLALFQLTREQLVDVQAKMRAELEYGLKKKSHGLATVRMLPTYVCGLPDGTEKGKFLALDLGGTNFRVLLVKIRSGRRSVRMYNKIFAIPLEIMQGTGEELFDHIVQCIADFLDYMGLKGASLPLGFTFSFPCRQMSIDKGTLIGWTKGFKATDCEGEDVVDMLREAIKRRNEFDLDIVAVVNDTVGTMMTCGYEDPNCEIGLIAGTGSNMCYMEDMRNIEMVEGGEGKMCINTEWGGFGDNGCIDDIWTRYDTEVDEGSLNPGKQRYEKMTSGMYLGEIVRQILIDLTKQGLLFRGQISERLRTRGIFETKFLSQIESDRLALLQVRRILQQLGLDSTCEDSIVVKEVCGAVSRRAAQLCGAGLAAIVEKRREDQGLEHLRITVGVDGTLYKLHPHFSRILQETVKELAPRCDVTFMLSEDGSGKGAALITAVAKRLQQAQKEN

Beta-galactosidase = Beta-galactosidase (Escherichia coli, UniProt Q8VNN2); experiment: detection-enzyme interference by beta-gal modulators – biochemical, E. coli enzyme, set 3, artefact control for CCR6 antagonist project, dose response (AID 504712); format: functional
[12] = target: C-C chemokine receptor type 6 (Homo sapiens, UniProt P51684); experiment: antagonism of CCR6 beta-arrestin recruitment – cell-based, luminescent beta-arrestin readout, dose response (AID 504728); format: functional
Chain of C-C chemokine receptor type 6 (P51684 whole entry): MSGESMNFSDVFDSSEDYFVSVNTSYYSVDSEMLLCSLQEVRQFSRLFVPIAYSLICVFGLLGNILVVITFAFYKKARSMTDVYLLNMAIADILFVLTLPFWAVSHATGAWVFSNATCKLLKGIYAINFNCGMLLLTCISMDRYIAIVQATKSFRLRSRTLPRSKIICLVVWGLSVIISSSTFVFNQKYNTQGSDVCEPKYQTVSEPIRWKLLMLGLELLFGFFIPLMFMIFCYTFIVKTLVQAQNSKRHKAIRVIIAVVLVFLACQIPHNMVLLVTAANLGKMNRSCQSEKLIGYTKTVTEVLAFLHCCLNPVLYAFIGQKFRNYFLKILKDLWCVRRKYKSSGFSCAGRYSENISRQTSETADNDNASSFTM

[13] = target: Induced myeloid leukemia cell differentiation protein Mcl-1 (Homo sapiens, UniProt Q07820); format: functional
[14] = target: T5, Scavenger receptor class B member 1 (Mus musculus, UniProt Q61009); experiment: mouse SR-BI DiI-HDL uptake blockers – ldlA[mSR-BI] cells, fluorescence, cherry pick, dose response (AID 493194); format: functional, cell-based;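 further: cellular uptake of fluorescent DiI-labeled HDL measured as cell fluorescence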
T5 sequence (Q61009 whole entry): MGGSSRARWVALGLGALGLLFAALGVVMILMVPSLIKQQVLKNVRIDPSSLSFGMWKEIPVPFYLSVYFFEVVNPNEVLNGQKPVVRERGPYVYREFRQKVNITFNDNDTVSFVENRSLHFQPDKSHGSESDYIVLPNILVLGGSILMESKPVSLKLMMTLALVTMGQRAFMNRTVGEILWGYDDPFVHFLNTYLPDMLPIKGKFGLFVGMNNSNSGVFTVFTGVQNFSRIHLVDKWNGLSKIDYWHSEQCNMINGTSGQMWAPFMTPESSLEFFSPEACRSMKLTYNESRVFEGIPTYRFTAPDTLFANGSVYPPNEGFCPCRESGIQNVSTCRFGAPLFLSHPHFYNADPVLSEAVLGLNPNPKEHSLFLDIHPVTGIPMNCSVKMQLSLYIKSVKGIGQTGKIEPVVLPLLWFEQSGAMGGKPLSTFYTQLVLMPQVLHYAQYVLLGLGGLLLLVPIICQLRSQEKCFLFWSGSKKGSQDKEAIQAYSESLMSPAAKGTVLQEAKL

Fatty acid synthase [15] = target: T6, Fatty acid synthase (Homo sapiens, UniProt P49327); experiment: inhibition of human FAS-TE enzyme activity – biochemical, kinetic fluorescence intensity, dose response (AID 624326); format: functional;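 further: rate of fluorescence rise from hydrolysis of a fluorogenic O-methyl fluorescein ester substrate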
T6 sequence (P49327 whole entry): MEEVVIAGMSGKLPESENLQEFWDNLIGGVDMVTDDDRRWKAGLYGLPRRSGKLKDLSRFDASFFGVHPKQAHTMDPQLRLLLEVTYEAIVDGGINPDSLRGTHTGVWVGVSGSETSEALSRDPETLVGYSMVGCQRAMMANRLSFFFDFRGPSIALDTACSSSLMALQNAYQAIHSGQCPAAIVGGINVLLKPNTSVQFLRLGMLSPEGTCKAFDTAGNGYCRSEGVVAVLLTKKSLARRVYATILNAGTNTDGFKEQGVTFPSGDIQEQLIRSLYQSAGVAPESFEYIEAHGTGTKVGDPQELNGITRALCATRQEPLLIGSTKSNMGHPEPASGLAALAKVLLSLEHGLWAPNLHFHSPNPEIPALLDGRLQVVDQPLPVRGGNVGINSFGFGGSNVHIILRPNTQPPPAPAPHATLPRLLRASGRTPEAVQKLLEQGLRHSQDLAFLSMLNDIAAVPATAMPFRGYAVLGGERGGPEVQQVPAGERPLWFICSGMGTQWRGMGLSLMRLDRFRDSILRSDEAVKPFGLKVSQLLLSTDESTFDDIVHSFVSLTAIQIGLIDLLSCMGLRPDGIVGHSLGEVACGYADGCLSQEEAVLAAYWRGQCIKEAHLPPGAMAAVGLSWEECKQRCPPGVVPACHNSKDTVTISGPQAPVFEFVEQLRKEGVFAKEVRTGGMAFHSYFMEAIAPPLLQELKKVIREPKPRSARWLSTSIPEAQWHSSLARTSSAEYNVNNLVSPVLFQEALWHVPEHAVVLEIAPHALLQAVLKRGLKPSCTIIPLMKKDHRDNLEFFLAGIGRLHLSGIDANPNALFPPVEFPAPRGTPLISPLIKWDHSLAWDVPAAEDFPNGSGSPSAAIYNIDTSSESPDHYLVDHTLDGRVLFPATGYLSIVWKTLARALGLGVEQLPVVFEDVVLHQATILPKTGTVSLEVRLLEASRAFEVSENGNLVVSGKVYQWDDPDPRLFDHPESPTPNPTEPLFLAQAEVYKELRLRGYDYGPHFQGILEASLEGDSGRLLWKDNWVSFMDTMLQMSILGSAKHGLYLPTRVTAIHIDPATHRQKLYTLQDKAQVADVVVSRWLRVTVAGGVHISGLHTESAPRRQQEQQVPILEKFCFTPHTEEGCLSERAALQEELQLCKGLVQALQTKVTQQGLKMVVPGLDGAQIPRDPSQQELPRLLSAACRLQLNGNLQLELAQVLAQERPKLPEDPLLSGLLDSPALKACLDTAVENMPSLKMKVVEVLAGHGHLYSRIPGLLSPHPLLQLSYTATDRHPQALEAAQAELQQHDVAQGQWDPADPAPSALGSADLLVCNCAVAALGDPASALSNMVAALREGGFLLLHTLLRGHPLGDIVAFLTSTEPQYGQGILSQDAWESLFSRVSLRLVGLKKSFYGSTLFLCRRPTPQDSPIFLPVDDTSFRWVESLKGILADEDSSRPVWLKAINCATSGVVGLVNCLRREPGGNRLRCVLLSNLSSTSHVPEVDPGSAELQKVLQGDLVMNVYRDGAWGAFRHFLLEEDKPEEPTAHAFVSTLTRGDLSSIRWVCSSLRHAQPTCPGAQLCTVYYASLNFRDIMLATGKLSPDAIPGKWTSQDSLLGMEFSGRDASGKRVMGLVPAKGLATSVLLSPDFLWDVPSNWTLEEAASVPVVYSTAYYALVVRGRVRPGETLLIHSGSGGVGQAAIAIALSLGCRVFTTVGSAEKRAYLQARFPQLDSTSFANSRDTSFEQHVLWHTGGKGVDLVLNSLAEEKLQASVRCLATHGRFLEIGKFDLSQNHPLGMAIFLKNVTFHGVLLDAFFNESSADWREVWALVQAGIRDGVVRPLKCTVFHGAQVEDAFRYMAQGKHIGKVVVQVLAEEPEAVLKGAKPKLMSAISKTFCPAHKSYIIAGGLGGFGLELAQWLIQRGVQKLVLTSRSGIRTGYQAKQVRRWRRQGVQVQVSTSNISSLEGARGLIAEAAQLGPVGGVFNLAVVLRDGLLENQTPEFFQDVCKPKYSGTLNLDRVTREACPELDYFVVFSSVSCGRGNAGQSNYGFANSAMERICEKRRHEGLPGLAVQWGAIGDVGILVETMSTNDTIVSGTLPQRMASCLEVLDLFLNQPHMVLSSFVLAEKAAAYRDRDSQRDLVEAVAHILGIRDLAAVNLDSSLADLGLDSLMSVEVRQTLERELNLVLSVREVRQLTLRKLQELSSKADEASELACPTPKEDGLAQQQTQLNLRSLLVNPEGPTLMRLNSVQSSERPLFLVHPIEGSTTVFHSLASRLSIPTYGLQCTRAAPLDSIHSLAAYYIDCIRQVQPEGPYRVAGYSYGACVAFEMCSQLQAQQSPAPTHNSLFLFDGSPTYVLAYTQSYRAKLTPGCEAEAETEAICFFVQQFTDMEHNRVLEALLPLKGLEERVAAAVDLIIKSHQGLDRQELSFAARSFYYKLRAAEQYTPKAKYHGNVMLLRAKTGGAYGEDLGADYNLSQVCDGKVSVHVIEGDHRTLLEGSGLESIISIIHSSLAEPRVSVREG

Genome polyprotein = Genome polyprotein (dengue virus type 2, UniProt P29990); experiment: flavivirus cap methylation enzyme inhibition – biochemical, confirmation dose response, primary screen (AID 588689); format: functional
Chain of Genome polyprotein (P29990 2492-3391 limits assumed): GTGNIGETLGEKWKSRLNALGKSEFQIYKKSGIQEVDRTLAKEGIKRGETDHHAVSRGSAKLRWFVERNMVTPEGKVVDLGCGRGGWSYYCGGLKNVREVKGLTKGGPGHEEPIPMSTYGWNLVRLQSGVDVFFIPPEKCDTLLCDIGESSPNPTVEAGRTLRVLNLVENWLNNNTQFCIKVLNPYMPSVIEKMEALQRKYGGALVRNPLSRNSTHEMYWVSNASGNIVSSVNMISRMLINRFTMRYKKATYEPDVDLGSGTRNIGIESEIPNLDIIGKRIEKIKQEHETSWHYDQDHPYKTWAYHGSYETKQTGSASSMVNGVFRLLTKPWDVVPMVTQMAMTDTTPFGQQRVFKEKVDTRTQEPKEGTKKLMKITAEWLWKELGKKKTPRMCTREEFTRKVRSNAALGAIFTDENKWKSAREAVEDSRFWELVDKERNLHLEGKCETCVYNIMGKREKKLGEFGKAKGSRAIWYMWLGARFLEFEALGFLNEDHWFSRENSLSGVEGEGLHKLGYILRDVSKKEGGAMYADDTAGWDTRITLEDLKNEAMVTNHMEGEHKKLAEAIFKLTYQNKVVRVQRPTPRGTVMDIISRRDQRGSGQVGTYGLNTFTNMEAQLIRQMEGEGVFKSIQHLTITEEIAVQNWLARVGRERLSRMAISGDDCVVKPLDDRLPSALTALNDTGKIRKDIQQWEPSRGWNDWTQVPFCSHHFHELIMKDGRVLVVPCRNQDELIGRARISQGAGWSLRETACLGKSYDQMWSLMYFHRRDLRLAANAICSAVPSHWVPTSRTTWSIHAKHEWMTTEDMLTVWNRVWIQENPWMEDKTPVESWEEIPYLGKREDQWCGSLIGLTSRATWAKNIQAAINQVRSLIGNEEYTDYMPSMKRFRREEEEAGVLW

Fatty acid synthase [16] = target: T6, Fatty acid synthase; experiment: inhibition of human FAS-TE enzyme activity – biochemical, endpoint fluorescence intensity, uHTS hits, dose response (AID 624327); format: functional;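 further: fluorescence from hydrolysis of an O-methyl fluorescein acyl ester substrate by the enzyme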
Prothrombin = Prothrombin (Homo sapiens, UniProt P00734); experiment: Thrombin 1536 HTS Dose Response Confirmation. [Related pubchem assays: 1046 (Thrombin 1536 HTS; hits were confirmed in this assay)]; format: functional
X-box-binding protein 1 = X-box-binding protein 1 (Homo sapiens, UniProt P17861); format: functional, Cricetulus griseus;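 further: confirmatory dose-response counter-screen serving a CHOP assay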
Coagulation factor XII = target: T7, Coagulation factor XII (Homo sapiens, UniProt P00748); format: functional;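 further: activated factor XIIa alpha cleaving a fluorogenic AMC peptide substrate; inhibitor potency from loss of enzyme activity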
T7 sequence (P00748 whole entry): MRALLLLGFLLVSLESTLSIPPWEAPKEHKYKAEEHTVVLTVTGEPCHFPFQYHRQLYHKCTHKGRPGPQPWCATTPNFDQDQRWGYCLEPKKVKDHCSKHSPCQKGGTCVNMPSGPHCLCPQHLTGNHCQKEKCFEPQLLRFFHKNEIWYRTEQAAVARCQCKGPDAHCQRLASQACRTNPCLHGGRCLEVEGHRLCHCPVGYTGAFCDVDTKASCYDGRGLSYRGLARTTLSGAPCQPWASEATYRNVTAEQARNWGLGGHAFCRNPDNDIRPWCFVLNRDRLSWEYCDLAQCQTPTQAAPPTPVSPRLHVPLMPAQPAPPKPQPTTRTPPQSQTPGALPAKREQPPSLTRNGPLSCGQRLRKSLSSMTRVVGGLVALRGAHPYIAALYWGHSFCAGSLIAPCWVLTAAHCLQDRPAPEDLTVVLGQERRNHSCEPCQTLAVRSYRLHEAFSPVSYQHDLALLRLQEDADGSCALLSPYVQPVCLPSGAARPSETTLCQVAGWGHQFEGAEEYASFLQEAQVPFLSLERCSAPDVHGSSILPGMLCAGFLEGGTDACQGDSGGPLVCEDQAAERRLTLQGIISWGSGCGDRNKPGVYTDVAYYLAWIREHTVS

[17] = target: Dual specificity protein phosphatase 3 (Homo sapiens, UniProt P51452); experiment: inhibition constants for human DUSP3 – biochemical, colorimetric, SAR follow-up (AID 2004)

Structure (SMILES): COc1cc(/C=C2\C(=N)N3N=C(S(C)(=O)=O)SC3=NC2=O)ccc1OCCOc1ccc(C)cc1
- IC50 [1]: 4.48 µM (active)
- EC50 [2]: > 53 µM (inactive)
- IC50 [3]: 3.15 µM (active)
- IC50 [4]: > 99 µM (inactive)
- IC50 [5]: 1.84 µM (active)

Structure (SMILES): CS(=O)(=O)C(C#N)Cc1cccn1S(=O)(=O)c1ccccc1 (stereo unspecified)
- IC50 [8]: > 20 µM (inactive)
- IC50 [9]: > 20 µM (not active)

Structure (SMILES): Cc1ccc(S(=O)(=O)/N=C2/C=C(Sc3nc[nH]n3)C(=O)c3ccccc32)cc1
- IC50 [10]: > 64 µM (inactive)
- Absolute IC50 (CHOP) [11]: 10 µM
- AC50 (HeLa): 23.1 µM (active)
- AC50 (INS1): 6.84 µM (active)
- IC50 (Hexokinase HKDC1): 1.8 µM (active)
- IC50 (Beta-galactosidase): > 66.6 µM (inactive)
- IC50 [12]: 3.12 µM (active)
- IC50 [13]: 19.7 µM (active)

Structure (SMILES): Cc1ccc(C)c(S(=O)(=O)ON2C(=O)c3ccccc3C2=O)c1
- IC50 (Fatty acid synthase [15]): 3.7 µM (active)
- IC50 (Genome polyprotein): > 100 µM (active)
- Absolute IC50 (CHOP) [11]: 10 µM
- IC50 (Fatty acid synthase [16]): 1.72 µM (active)
- IC50 (Prothrombin): 1.57 µM (active)
- Absolute IC50 (XBP1) (X-box-binding protein 1): 10 µM
- IC50 (Coagulation factor XII): 2.59 µM (active)

Structure (SMILES): S=C(NCCN1CCOCC1)Nc1ccccc1
- Ki [17]: 64.3 µM (inactive)

The remaining lines, values ahead:

- IC50 [6]: 3.7 µM (active)
- IC50 [7]: 1.1 µM (active)
Structure (SMILES): CCOC(=O)c1cccc(-n2ncc(Cl)c(Oc3ccc(OC)cc3)c2=O)c1

- AC50 [14]: 1.56 µM (active)
Structure (SMILES): CC(OC(=O)c1cccc(NS(C)(=O)=O)c1)C(=O)Nc1ccc(N2CCOCC2)cc1 (stereo unspecified)
